The values that follow come from US10040804B2, “Compounds targeting proteins, compositions, methods, and uses thereof” (BioTheryX, Inc., priority 2016, dated 2018).

One assay concerns TNF-α. The assay can be described thus: TNF-α expression in LPS stimulated PBMCs (Meso Scale). Type of assay: cell-based, human. The settings on record: Homo sapiens, PBMC; for inhibition at 5 µM: compound concentration 5 μM; for inhibition at 10 µM: compound concentration 10 μM. Here is the method: FIGS. 7 and 9C are graphs showing TNF-a expression in LPS stimulated peripheral blood mononuclear cells (PBMCs). PBMCs were plated in 96-well plates and pretreated with compound (Compound 1-9 individually) for 1 h, and then induced with 100 ng/mL LPS for 18-24 h. Cytokines in the media were measured according to MesoScale protocol. The negative control wells were treated with DMSO. Compound activity is measured as a percentage of LPS-induced activity. “Rev” is lenalidomide.
(§1) Frozen primary blood mononuclear cells (PBMCs) and frozen CD14+ mobilized peripheral blood monocytes were purchased from AllCells. Cells were quick thawed, and washed 1-time with RPMI-1640/10% FBS/1% Penicillin/1% Streptomycin and plated in 96-well plates at 200,000 cells per well. Cells were pretreated with DMSO only, Compound 5013 (lenolidamide) or the indicated compound for 1 h and then induced with 100 ng/mL lipopolysaccharide (LPS) for 18-24 h. The supernatant was analyzed for IL-1 beta, IL-6, and TNF-α using Meso Scale assay according to manufacturer's protocol. The negative control wells were treated with DMSO.
(§2) PBMCs: AllCells PB003F, Normal Peripheral Blood MNC.
(§3) Media: RPMI 1640/10% FBS/1% Pen-Strep.

In another assay the test system is IL-6. Nature of the assay: IL-6 expression in LPS stimulated PBMCs (Meso Scale). Type of assay: cell-based, human. The following applies: Homo sapiens, PBMC, LPS-stimulated PBMCs; for inhibition at 5 µM: compound concentration 5 μM; for inhibition at 10 µM: compound concentration 10 μM. Here is the method:
FIGS. 6 and 9B are graphs showing IL-6 expression in LPS stimulated peripheral blood mononuclear cells (PBMCs). PBMCs were plated in 96-well plates and pretreated with compound (Compound 1-9 individually) for 1 h, and then induced with 100 ng/mL LPS for 18-24 h. Cytokines were measured according to MesoScale protocol. Negative control wells were treated with DMSO. Compound activity was measured as a percentage of LPS-induced activity. “Rev” is lenalidomide.
as §1, §2, §3

The next assay has as its system Molm-13 cells. The assay can be described thus: Molm-13 cell viability (CellTiter-Glo). In kind it is cell-based. The following applies: Homo sapiens, MOLM-13, read-out: % Inhibition (MOLM-13 Cell Viability); for cytotoxicity at 10 µM: compound concentration 10 μM. Here is the method:
(§4) FIG. 10A is a graph showing antiproliferative activity in H1048 (SCLC) cells. FIG. 10B is a graph showing antiproliferative activity in Molm-13 (AML) cells. In FIGS. 10A and 10B, the cells were incubated for 72 hrs with Compound 9 at the indicated concentrations or DMSO. Compound activity was measured based on the signal from remaining viable cells.
(§5) Molm-13 cells were cultivated in RPMI-1640 (10% FBS/1% pen-strep) and were plated in white walled 96-well plates at 20,000 cells/well. H1048 cells were cultured in DMEM:F12 media supplemented with 5% fetal bovine serum, insulin, transferrin, sodium selenite, hydrocortisone, β-estradiol, penicillin and streptomycin, and were plated in white walled 96-well plates at 20,000 cells/well. MDA-MB-231 cells were cultured in DMEM media supplemented with 10% fetal bovine serum, penicillin and streptomycin, and were plated in white walled 96-well plates at 10,000 cells/well. Cells were treated with compound or DMSO (0.1%, control) and the cultures were incubated for 3 days at 37° C. and 5% CO2. Following the incubation period, 100 μL of CellTiterGlow (CTG) reagent (CellTiter-Glo® Luminescent Cell Viability Assay, Promega (Madison, Wis.)) was added to each well. Following a 10 min incubation with shaking, luminescence was measured using a Victor Wallac Luminometer.

Another assay relates to IL-2. Nature of the assay: anti-CD3-induced IL-2 secretion in PBMCs. Type of assay: cell-based. The following applies: Homo sapiens, PBMC, anti-CD3 stimulated PBMCs, 24 h, DMSO = 1.0, read-out: Fold Change IL-2; for fold induction at 5 µM: compound concentration 5 μM; for fold induction at 10 µM: compound concentration 10 μM. Here is the method: FIGS. 4 and 9D are graphs showing anti-CD3-induced IL-2 secretion in PBMCs. 1 ug/mL anti-CD3 (OKT-3) antibody in PBS were coated onto 96-well plates overnight at 4° C. Approximately 550,000 PBMCs were added to each well, followed by addition of DMSO only, Compound 1-8 at 10 μM (FIG. 4) or Compound 9 at 0.1 μM or 1 μM (FIG. 9D), or 10 μM lenalidomide (rev). Induction was measured after 24 h as fold difference from the DMSO stimulated control.
For the IL-2 analysis, 96 well plates were precoated with 1 ug/mL anti-human CD3 antibody (OKT3, eBioscience Inc.). After washing with PBS, compounds were added to the wells (50 μL/well) followed by PBMCs diluted at 3-4 million cells/mL (150 μL/well). Plates were incubated for 24 h and the supernatants collected for Mesoscale IL-2 analysis.
Compound activity was measured as fold difference from the DMSO control. IL-1-beta activity is shown in FIG. 1; IL-6 activity is shown in FIG. 2; TNF-α activity is shown in FIG. 3; and IL-2 activity is shown in FIG. 4.

Another assay concerns IL-1β. The assay can be described thus: IL-1β expression in LPS stimulated PBMCs (Meso Scale). In kind it is cell-based, human. The following applies: Homo sapiens, PBMC; for inhibition at 5 µM: compound concentration 5 μM; for inhibition at 10 µM: compound concentration 10 μM. Here is the method:
FIGS. 5 and 9A are graphs showing IL-1-beta expression in LPS stimulated peripheral blood mononuclear cells (PBMCs), PBMCs were plated in 96-well plates and pretreated with compound (Compound 1-9 individually) for 1 h, and then induced with 100 ng/mL LPS for 18-24 h. Cytokines in the media were measured according to MesoScale protocol. Negative control wells were treated with DMSO. Compound activity is measured as a percentage of LPS-induced activity. “Rev” is lenalidomide.
as §1, §2, §3

In another assay the target is T1, GSPT1 (Homo sapiens, UniProt P15170).
T1 construct: Whole cell extracts were prepared using RIPA buffer according to manufacturer's protocol (Pierce); endogenous in cells
T1 sequence (P15170 whole entry): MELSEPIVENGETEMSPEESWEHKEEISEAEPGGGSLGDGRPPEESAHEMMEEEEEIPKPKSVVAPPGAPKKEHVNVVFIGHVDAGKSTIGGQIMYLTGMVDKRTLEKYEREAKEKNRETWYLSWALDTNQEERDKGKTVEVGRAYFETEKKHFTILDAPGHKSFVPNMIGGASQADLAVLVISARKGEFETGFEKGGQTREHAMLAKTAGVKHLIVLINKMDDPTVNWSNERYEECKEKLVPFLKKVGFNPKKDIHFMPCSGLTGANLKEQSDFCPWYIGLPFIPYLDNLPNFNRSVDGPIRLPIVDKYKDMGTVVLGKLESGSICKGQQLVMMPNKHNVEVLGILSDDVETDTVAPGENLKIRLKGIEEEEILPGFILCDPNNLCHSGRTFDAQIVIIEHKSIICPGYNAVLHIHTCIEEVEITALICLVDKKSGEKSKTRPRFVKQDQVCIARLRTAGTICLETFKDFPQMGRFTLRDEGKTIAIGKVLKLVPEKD
T1 sequence (Q96SW2 whole entry, further chain): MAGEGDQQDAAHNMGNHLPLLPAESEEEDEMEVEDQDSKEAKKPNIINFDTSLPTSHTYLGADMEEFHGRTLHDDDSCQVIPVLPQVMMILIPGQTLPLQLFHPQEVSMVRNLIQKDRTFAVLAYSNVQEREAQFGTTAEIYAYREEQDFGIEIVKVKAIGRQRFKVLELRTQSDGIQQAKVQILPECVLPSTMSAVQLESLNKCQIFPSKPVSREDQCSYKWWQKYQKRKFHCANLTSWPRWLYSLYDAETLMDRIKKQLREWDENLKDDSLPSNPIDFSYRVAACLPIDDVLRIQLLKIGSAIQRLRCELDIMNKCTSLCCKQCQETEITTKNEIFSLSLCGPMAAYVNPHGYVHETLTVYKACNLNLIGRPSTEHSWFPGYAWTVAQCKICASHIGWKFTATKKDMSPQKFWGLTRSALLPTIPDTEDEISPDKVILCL
T1 sequence (Q16531 whole entry partner): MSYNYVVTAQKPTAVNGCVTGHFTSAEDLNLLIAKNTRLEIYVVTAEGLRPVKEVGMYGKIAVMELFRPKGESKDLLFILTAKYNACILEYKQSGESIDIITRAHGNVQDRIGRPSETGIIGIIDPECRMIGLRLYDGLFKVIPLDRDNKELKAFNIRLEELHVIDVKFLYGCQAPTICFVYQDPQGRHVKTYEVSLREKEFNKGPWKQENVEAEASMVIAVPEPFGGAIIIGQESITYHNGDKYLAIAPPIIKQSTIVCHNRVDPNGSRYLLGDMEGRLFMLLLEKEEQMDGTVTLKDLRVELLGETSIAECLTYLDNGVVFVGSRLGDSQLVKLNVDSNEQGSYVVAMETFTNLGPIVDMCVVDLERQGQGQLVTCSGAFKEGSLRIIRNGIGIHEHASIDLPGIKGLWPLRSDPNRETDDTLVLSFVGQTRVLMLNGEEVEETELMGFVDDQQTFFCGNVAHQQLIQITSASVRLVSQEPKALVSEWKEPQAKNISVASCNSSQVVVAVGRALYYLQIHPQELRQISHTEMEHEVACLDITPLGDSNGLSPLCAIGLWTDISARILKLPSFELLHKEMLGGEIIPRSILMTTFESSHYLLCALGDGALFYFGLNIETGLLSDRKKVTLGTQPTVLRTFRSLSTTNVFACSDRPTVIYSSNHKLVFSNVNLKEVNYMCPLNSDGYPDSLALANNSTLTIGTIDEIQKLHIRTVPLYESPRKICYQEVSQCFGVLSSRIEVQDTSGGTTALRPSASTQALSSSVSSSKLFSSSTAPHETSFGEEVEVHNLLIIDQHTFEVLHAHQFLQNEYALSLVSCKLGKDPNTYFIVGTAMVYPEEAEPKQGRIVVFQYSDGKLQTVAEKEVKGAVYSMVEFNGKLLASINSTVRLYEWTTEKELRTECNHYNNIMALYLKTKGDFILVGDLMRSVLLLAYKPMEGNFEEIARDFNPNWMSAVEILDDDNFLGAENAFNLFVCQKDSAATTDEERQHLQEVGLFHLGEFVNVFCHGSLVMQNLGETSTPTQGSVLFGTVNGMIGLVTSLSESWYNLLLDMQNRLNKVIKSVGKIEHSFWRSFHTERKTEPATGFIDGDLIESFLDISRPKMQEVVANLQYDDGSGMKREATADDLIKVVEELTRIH
The assay can be described thus: GSPT1 protein levels by Western Blot analysis. Type of assay: cell-based. The settings on record: DMSO = 100.00; for remaining activity at 0.1 µM: 100 nM compound concentration; for remaining activity at 1 µM: 1 μM compound concentration. Here is the method: Cells were lysed using RIPA Buffer (Pierce) and a Western Blot analysis was performed using anti-GSPT1 and anti-β-actin antibodies. FIG. 11B is a graph showing the expression levels of GSPT1 protein in Molm-13 (AML) cells. Protein expression levels were measured using the LiCor Odyssey instrumentation and methods.
Western Blot Protocol: Cell lines were grown in RPMI 1640 supplemented with streptomycin, penicillin and 10% fetal bovine serum.
Cells were cultured at approximately 10^6 cells per mL and incubated in DMSO or each of the indicated compounds for 6-8 h. Whole cell extracts were prepared using RIPA buffer according to manufacturer's protocol (Pierce). Briefly, 2×10^6 cells were washed once in PBS, the cell pellets were resuspended in RIPA buffer and allowed to incubate for 15 minutes on ice. Cells debris was removed by centrifugation and the cleared whole cell lysates were transferred to new tubes for further analysis.
For Western blot analysis, whole cell protein extracts were separated on 4-12% SDS-polyacrylamide gels, transferred to nitrocellulose, and probed with the indicated primary antibodies. Membranes were subsequently washed and probed with the appropriate IRDye secondary antibodies (LI-COR). The signal was detected using the Odyssey Imaging System (LI-COR).
GSPT1: Rabbit anti-GSPT1 was obtained from Abcam, ab126090 (Cambridge, Eng.)

The next assay deals with H1048 cells. Nature of the assay: H1048 cell viability (CellTiter-Glo). Type of assay: cell-based. The following applies: Homo sapiens, NCI-H1048, 72 h, H1048, 3 days, DMSO = 100.00; for viability at 1 µM: 1 μM compound concentration; for viability at 10 µM: 10 μM compound concentration. Here is the method: as §4, §5
The subject of another assay is MDA-MB-231 cells. Nature of the assay: MDA-MB-231 cell viability (CellTiter-Glo). In kind it is cell-based. The following applies: Homo sapiens, 72 h, 3 days, DMSO = 100.00; for viability at 1 µM: 1 μM compound concentration; for viability at 10 µM: 10 μM compound concentration. Here is the method:
as §5

Regarding `O=C1CCC[C@H](N2Cc3ccsc3C2=O)C(=O)N1` [Compound 1, (S)-3-(6-oxo-4,6-dihydro-5H-thieno[2,3-c]pyrrol-5-yl)azepane-2,7-dione], the results for the inhibition at 5 µM in the assay with TNF-α, with IL-6 and with IL-1β were 22%, 0% and 25%, respectively. Besides, the cytotoxicity at 10 µM with Molm-13 cells came to 6%. Moreover, in the assay on IL-2, the fold induction at 5 µM came to 0.8.
For `O=C1CCC[C@H](N2Cc3sccc3C2=O)C(=O)N1` [Compound 2, (S)-3-(4-oxo-4,6-dihydro-5H-thieno[2,3-c]pyrrol-5-yl)azepane-2,7-dione], in that order: 65%, 31%, 88%, 32% and 1.9.
With `O=C1CCC[C@H](N2C(=O)c3ccsc3C2=O)C(=O)N1` [Compound 3, (S)-5-(2,7-dioxoazepan-3-yl)-4H-thieno[2,3-c]pyrrole-4,6(5H)-dione], the inhibition at 10 µM in the assay on TNF-α, with IL-6 and with IL-1β was 0% each time. Moreover, the cytotoxicity at 10 µM in the assay on Molm-13 cells turned out to be 0%. Besides, the fold induction at 10 µM with IL-2 came to 0.9.
For `O=C1NCCCC[C@@H]1N1Cc2sccc2C1=O` [Compound 4, (S)-5-(2-oxoazepan-3-yl)-5,6-dihydro-4H-thieno[2,3-c]pyrrol-4-one], the inhibition at 10 µM with TNF-α, in the assay on IL-6 and in the assay on IL-1β was 0% each time. Also, the cytotoxicity at 10 µM in the assay with Molm-13 cells was 0%. In the assay on IL-2, the fold induction at 10 µM was 0.7.
Take `O=C1CCC[C@@H](N2Cc3sccc3C2=O)C(=O)N1` [Compound 5, (R)-3-(4-oxo-4,6-dihydro-5H-thieno[2,3-c]pyrrol-5-yl)azepane-2,7-dione]: the inhibition at 10 µM was determined as 0% in the assay with TNF-α, 1% in the assay on IL-6 and 0% in the assay on IL-1β. Further, the cytotoxicity at 10 µM in the assay with Molm-13 cells was 24%. Also, the fold induction at 10 µM with IL-2 is 1.4.
For `O=C1C[C@H](N2Cc3sccc3C2=O)C(=O)N1` [Compound 6, (S)-3-(4-oxo-4,6-dihydro-5H-thieno[2,3-c]pyrrol-5-yl)pyrrolidine-2,5-dione], the inhibition at 10 µM in the assay with TNF-α came out at 16%; in the assay on IL-6, 8%; in the assay with IL-1β it was 14%. Further, the cytotoxicity at 10 µM in the assay on Molm-13 cells was 0%. The fold induction at 10 µM in the assay with IL-2 came out at 1.
For `O=C1CCC[C@H](N2Cc3cscc3C2=O)C(=O)N1` [Compound 7, (S)-3-(4-oxo-4H-thieno[3,4-c]pyrrol-5(6H)-yl)azepane-2,7-dione], in that order: 41%, 47%, 60%, 24% and 1.7.
Consider `O=C1CCC(N2Cc3c(csc3CNC(=O)Nc3ccc(C(F)(F)F)c(Cl)c3)C2=O)C(=O)N1` (stereo not shown) [Compound 55, 1-(3-chloro-4-(trifluoromethyl)phenyl)-3-((5-(2,6-dioxopiperidin-3-yl)-4-oxo-5,6-dihydro-4H-thieno[3,4-c]pyrrol-1-yl)methyl)urea], for which the remaining activity at 0.1 µM on GSPT1 turned out to be 1.51%. For the same molecule, at GSPT1, the remaining activity at 1 µM worked out at 2.86%. Moreover, the inhibition at 0.1 µM with TNF-α (compound concentration 0.1 μM) came out at 96%; in the assay with IL-6 (compound concentration 0.1 μM), 100%; with IL-1β (compound concentration 0.1 μM) it was 99%. Besides, in the assay with Molm-13 cells (compound concentration 0.1 μM), the cytotoxicity at 0.1 µM amounted to 100%. For the same molecule, the values for the viability at 1 µM in the assay on H1048 cells and in the assay with MDA-MB-231 cells were 7.63% and 20.2%, respectively. The viability at 10 µM in the assay with H1048 cells was found to be 7.94%; in the assay with MDA-MB-231 cells, 19%.
Consider `Cc1ccc(NC(=O)NCc2scc3c2CN([C@H]2CCCC(=O)NC2=O)C3=O)nc1Cl` [Compound 57, (S)-1-(6-Chloro-5-methylpyridin-2-yl)-3-((5-(2,7-dioxoazepan-3-yl)-4-oxo-5,6-dihydro-4H-thieno[3,4-c]pyrrol-1-yl)methyl)urea], for which the remaining activity at 0.1 µM on GSPT1 amounted to 265%. Besides, on GSPT1, the remaining activity at 1 µM was found to be 28.4%. For the same molecule, the results for the inhibition at 1 µM in the assay with TNF-α (compound concentration 1 μM), in the assay with IL-6 (compound concentration 1 μM) and in the assay on IL-1β (compound concentration 1 μM) were 44%, 32% and 42%, respectively. For the same molecule, the cytotoxicity at 1 µM in the assay on Molm-13 cells (compound concentration 1 μM) amounted to 45%. For the same molecule, the viability at 1 µM with H1048 cells is 12.4%; with MDA-MB-231 cells it was 107%. Further, the viability at 10 µM worked out at 8.7% in the assay on H1048 cells and 52% in the assay with MDA-MB-231 cells.
